From patent US20060276393A1, “Novel compositions for preventing and treating neurodegenerative and blood coagulation disorders” (Sirtris Pharmaceuticals, Inc., priority 2005, published 2006)
Read-outs that look alike come from different tables or passages of the source.

Experiments:
S. cerevisiae [1] = assay: Yeast replicative lifespan; assay type: cell-based; details: for Average lifespan, growth on resveratrol: wild type untreated 21.0
S. cerevisiae [2] = assay: Yeast chronological lifespan; assay type: cell-based; details: 10 μM or 100 μM, nutrient deprived state
[3] = system: Experimental autoimmune encephalomyelitis (EAE) in SJL/J mice; details: for Mean total EAE score: 30 days from day 11, vehicle 72.38; for Mean EAE Score - Last 10 Days: vehicle 23.00

Oc1ccc(/C=C/c2cc(O)cc(O)c2)cc1 [Resveratrol, 3,5,4′-Trihydroxy-trans-stilbene]
increase of average lifespan (S. cerevisiae [1]; 10 μM): 70%
maximum lifespan (in words) (S. cerevisiae [1]; 10 μM): significantly increased maximum lifespan
Average lifespan (S. cerevisiae [1]; 10 μM compound, 2% glucose medium, wild type untreated 22.9): 36.8 generations
Average lifespan, growth on resveratrol (S. cerevisiae [1]; 10 μM): 35.7 generations
Average lifespan, growth on resveratrol (S. cerevisiae [1]; 100 μM): 29.4 generations
Average lifespan, growth on resveratrol (S. cerevisiae [1]; 500 μM): 29.3 generations
Average lifespan, glucose-restricted+resveratrol (CR+R) (S. cerevisiae [1]; glucose restriction): 39.9 generations
Average lifespan, pnc1Δ+resveratrol (S. cerevisiae [1]; pnc1Δ untreated 19.2): 33.1 generations
Average lifespan, sir2Δ+resveratrol (S. cerevisiae [1]; sir2Δ untreated 9.9): 10.0 generations
Average lifespan, wild type+resveratrol (wt+R) (S. cerevisiae [1]; wild type untreated 19.0): 37.8 generations
chronological lifespan (S. cerevisiae [2]): failed to extend chronological lifespan
clinical course ([3]; high dose resveratrol 400 mg/kg/day): not different from controls
peak and overall disease level ([3]; low dose resveratrol 200 mg/kg/day): slightly higher than controls
Mean total EAE score ([3]; resveratrol 200 mg/kg/day IP): 94.00
Mean EAE Score - Last 10 Days ([3]; resveratrol 200 mg/kg/day IP): 28.63
Mean total EAE score ([3]; resveratrol 400 mg/kg/day IP): 73.00
Mean EAE Score - Last 10 Days ([3]; resveratrol 400 mg/kg/day IP): 21.88
